Source: patent US10787430B2, “Hemoglobin modifier compounds and uses thereof” (FronThera U.S. Pharmaceuticals LLC, priority 2016, dated 2020)

Experiments:
[1] = target: T1, hemoglobin (normal human adult blood) (Homo sapiens, UniProt P68871+P69905); assay: Time-dependent oxygen equilibrium curve (OEC) studies in normal whole blood; format: cell-based; conditions: 2 mM compound, 2% DMSO, normal human blood 20% hematocrit, 37° C., 1 h
T1 construct: Normal whole blood was collected from adult healthy donors; from tissue; host or cells: normal human whole blood (red blood cells), adult healthy donors
Procedure: (§1) Materials: Normal whole blood was collected from adult healthy donors at the Virginia Commonwealth University after informed consent. The use of these human samples is in accordance with regulations of the IRB for Protection of Human Subjects. Compounds (50 mM-100 mM concentration in DMSO) were stored at 15° C. or room temperature until use.
The time-dependent OEC studies were conducted on normal human adult blood samples with hematocrit value of 20% in the absence or presence of effectors solubilized in DMSO at final drug and DMSO concentrations of 2 mM and 2%, respectively. […] The mixture was further incubated at 37° C. with shaking. […] After equilibration, the sample was removed by syringe and aspirated into a ABL 700 series table top automated blood gas analyzer (Radiometer America, Inc., Westlake, Ohio) to determine values of total hemoglobin (tHb), methemoglobin (metHb), hematocrit (Hct), pH, partial pressure of oxygen (pO2), and Hb oxygen saturation values (sO2). The measured values of sO2 and pO2 at each partial pressure of oxygen are then subjected to a non-linear regression analysis using the program Scientist (Micromath, Salt Lake City, Utah) with the following equation: […]
This equation was used to calculate P50 and Hill coefficient (N) values. Corresponding control experiments without the test compound (P50control) but containing DMSO were also performed. GBT440 was used as a positive control.

[2] = target: T2, hemoglobin (20% hct blood) (Homo sapiens, UniProt P68871+P69905); assay: Dose-dependent whole blood OEC studies; format: cell-based; conditions: 37° C., 1 hr; for delta p50 0.2 mM: 0.2 mM compound; for delta p50 0.5 mM: 0.5 mM compound
T2 construct: Normal whole blood was collected from adult healthy donors; from tissue; host or cells: normal human whole blood (red blood cells), adult healthy donors
Procedure: as §1
To 2 ml 20% hct blood, 0.2 or 0.5 or 1 mM compound was added and kept shaking at 37° C. for 1 hr. OEC analysis was performed as described above to determine partial pressure of oxygen (pO2) and Hb oxygen saturation values (sO2). A control without compound but containing equivalent amount of DMSO was performed (1%). GBT440 was used as a positive control. Table 2 below lists the delta p50% values.

T1 sequence (P69905 2-142 limits assumed): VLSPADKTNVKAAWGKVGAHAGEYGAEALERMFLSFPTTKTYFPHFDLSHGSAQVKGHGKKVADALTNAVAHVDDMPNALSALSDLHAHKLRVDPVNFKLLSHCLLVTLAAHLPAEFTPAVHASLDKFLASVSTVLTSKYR
T1 sequence (P68871 2-147 limits assumed): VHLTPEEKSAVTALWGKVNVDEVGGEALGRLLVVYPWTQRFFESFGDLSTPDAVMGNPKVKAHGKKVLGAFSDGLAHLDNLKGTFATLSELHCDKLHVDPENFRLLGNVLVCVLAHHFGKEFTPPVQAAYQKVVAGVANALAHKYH
T2 sequence (P69905 2-142 limits assumed): as the sequence (P69905 2-142 limits assumed) above
T2 sequence (P68871 2-147 limits assumed): as the sequence (P68871 2-147 limits assumed) above

Compound | delta p50 [1] | delta p50 0.2 mM [2] | delta p50 0.5 mM [2]
CC(C)n1nccc1-c1ncccc1COc1ccc2c(c1C=O)CCO2 [Example 2, 5-((2-(1-isopropyl-1H-pyrazol-5-yl)pyridin-3-yl)methoxy)-2,3-dihydrobenzofuran-4-carbaldehyde] | −78% |  | 
CC(C)n1nccc1-c1ncccc1COc1cc2c(cc1C=O)OCC2 [Example 3, 5-((2-(1-isopropyl-1H-pyrazol-5-yl)pyridin-3-yl)methoxy)-2,3-dihydrobenzofuran-6-carbaldehyde] | −62% |  | 
CC(C)n1nccc1-c1ncccc1COc1ccc2c(c1C=O)OCC2 [Example 4, 6-((2-(1-isopropyl-1H-pyrazol-5-yl)pyridin-3-yl)methoxy)-2,3-dihydrobenzofuran-7-carbaldehyde] | −51% |  | 
CC(C)n1nccc1-c1ncccc1COc1ccc2ccoc2c1C=O [Example 5, 6-((2-(1-isopropyl-1H-pyrazol-5-yl)pyridin-3-yl)methoxy)benzofuran-7-carbaldehyde] | −77% |  | 
CC(C)n1nccc1-c1ncccc1COc1ccc2c(c1C=O)OCO2 [Example 6, 5-((2-(1-isopropyl-1H-pyrazol-5-yl)pyridin-3-yl)methoxy)benzo[d][1,3]dioxole-4-carbaldehyde] | −66% |  | 
CC(C)n1nccc1-c1ncccc1COc1ccc2c(c1C=O)OCCO2 [Example 7, 6-((2-(1-isopropyl-1H-pyrazol-5-yl)pyridin-3-yl)methoxy)-2,3-dihydrobenzo[b][1,4]dioxine-5-carbaldehyde] | −59% |  | 
CC(C)n1nccc1-c1ncccc1COc1ccc2c(c1C=O)OC(F)(F)O2 [Example 8, 2,2-difluoro-5-((2-(1-isopropyl-1H-pyrazol-5-yl)pyridin-3-yl)methoxy)benzo[d][1,3]dioxole-4-carbaldehyde] | −68% |  | 
CC(C)n1nccc1-c1ncccc1COc1ccc2c(c1C=O)C(O)C(F)(F)O2 (stereo not drawn) [Example 9, 2,2-difluoro-3-hydroxy-5-((2-(1-isopropyl-1H-pyrazol-5-yl)pyridin-3-yl)methoxy)-2,3-dihydrobenzofuran-4-carbaldehyde] | −64% |  | 
CC(C)n1nccc1-c1ncccc1COc1ccc2c(c1C=O)C(O)C(F)(F)C2 (stereo not drawn) [Example 10, 2,2-difluoro-3-hydroxy-5-((2-(1-isopropyl-1H-pyrazol-5-yl)pyridin-3-yl)methoxy)-2,3-dihydro-1H-indene-4-carbaldehyde] | −68% |  | 
CC(C)n1nccc1-c1ncccc1COc1ccn2nnnc2c1C=O [Example 13, 7-((2-(1-isopropyl-1H-pyrazol-5-yl)pyridin-3-yl)methoxy)tetrazolo[1,5-a]pyridine-8-carbaldehyde] | −9% |  | 
CC(C)n1nccc1-c1ncccc1COc1ccc2ocnc2c1C=O [Example 14, 5-((2-(1-isopropyl-1H-pyrazol-5-yl)pyridin-3-yl)methoxy)benzo[d]oxazole-4-carbaldehyde] | −63% |  | 
CC(C)n1nccc1-c1ncccc1COc1ccc2ncoc2c1C=O [Example 15, 6-((2-(1-isopropyl-1H-pyrazol-5-yl)pyridin-3-yl)methoxy)benzo[d]oxazole-7-carbaldehyde] | −81% |  | 
CC(C)n1nccc1-c1ncccc1COc1ccc2sccc2c1C=O [Example 20, 5-((2-(1-isopropyl-1H-pyrazol-5-yl)pyridin-3-yl)methoxy)benzo[b]thiophene-4-carbaldehyde] | −74% |  | 
CC(C)n1nccc1-c1ncccc1COc1ccc2c(c1C=O)CCS2(=O)=O [Example 21, 5-((2-(1-isopropyl-1H-pyrazol-5-yl)pyridin-3-yl)methoxy)-2,3-dihydrobenzo[b]thiophene-4-carbaldehyde 1,1-dioxide] | −72% |  | 
CC(C)n1nccc1-c1ncccc1CSc1cccc(O)c1C=O [Example 23, 2-hydroxy-6-(((2-(1-isopropyl-1H-pyrazol-5-yl)pyridin-3-yl)methyl)thio)benzaldehyde] | −62% |  | 
[2H]C(=O)c1c(O)cccc1OCc1cccnc1-c1ccnn1C(C)C [Example 24] | −47% |  | 
CC(C)n1nccc1-c1ncn(C)c1COc1cccc(O)c1C=O [Example 69, 2-hydroxy-6-((4-(1-isopropyl-1H-pyrazol-5-yl)-1-methyl-1H-imidazol-5-yl)methoxy)benzaldehyde] |  | −21.40% | −41.80%
[2H]C([2H])(Oc1cccc(O)c1C=O)c1nccnc1-n1ccnc1C(C)C [Example 72, 2-hydroxy-6-((3-(2-isopropyl-1H-imidazol-1-yl)pyrazin-2-yl)methoxy-d2)benzaldehyde] |  | −5.10% | −16.80%
[2H]C([2H])(Oc1cccc(O)c1C=O)c1c(F)ccnc1-c1ccnn1C(C)C [Example 75, 2-((4-fluoro-2-(1-isopropyl-1H-pyrazol-5-yl)pyridin-3-yl)methoxy-d2)-6-hydroxybenzaldehyde] |  | −13.0% | −53.7%

Next, values leading:

delta p50 [1] | delta p50 0.2 mM [2] | delta p50 0.5 mM [2] | Compound
−85% |  |  | [2H]C([2H])([2H])C(n1nccc1-c1ncccc1COc1cccc(O)c1C=O)C([2H])([2H])[2H] [Example 30, 2-hydroxy-6-((2-(1-(propan-2-yl-1,1,1,3,3,3-d6)-1H-pyrazol-5-yl)pyridin-3-yl)methoxy)benzaldehyde]
 | −5.30% | −8.80% | CC(C)n1nccc1-c1ncncc1COc1ccc2cccnc2c1C=O [Example 55, 7-((4-(1-isopropyl-1H-pyrazol-5-yl)pyrimidin-5-yl)methoxy)quinoline-8-carbaldehyde]
 | −1.60% | −11.30% | CC(C)n1nccc1-c1ncncc1COc1ccc2cccnc2c1C=O [Example 56, 7-((4-(1-isopropyl-1H-pyrazol-5-yl)pyrimidin-5-yl)methoxy)quinoline-8-carbaldehyde]
 | −4.90% | −7.60% | CC(C)n1ncc(F)c1-c1ncncc1COc1cccc(O)c1C=O [Example 57, 2-((4-(4-fluoro-1-isopropyl-1H-pyrazol-5-yl)pyrimidin-5-yl)methoxy)-6-hydroxybenzaldehyde]
 | −14.30% | −34.30% | CC(C)n1nccc1-c1cccnc1COc1ccc2ncoc2c1C=O [Example 58, 6-((3-(1-isopropyl-1H-pyrazol-5-yl)pyridin-2-yl)methoxy)benzo[d]oxazole-7-carbaldehyde]
−54% |  |  | CC(C)n1nccc1-c1nn(C)c(=O)cc1COc1cccc(O)c1C=O [Example 59, 2-hydroxy-6-((3-(1-isopropyl-1H-pyrazol-5-yl)-1-methyl-6-oxo-1,6-dihydropyridazin-4-yl)methoxy)benzaldehyde]
 | −7.00% | −15.20% | CC(C)n1nccc1-c1c(COc2cccc(O)c2C=O)ncn1C [Example 63, 2-hydroxy-6-((5-(1-isopropyl-1H-pyrazol-5-yl)-1-methyl-1H-imidazol-4-yl)methoxy)benzaldehyde]
 | −10.00% | −31.00% | CC(C)n1nccc1-c1scnc1COc1cccc(O)c1C=O [Example 64, 2-hydroxy-6-((5-(1-isopropyl-1H-pyrazol-5-yl)thiazol-4-yl)methoxy)benzaldehyde]
 | −11.20% | −36.20% | CC(C)n1nccc1-c1ncsc1COc1cccc(O)c1C=O [Example 65, 2-hydroxy-6-((4-(1-isopropyl-1H-pyrazol-5-yl)thiazol-5-yl)methoxy)benzaldehyde]
 | −5.70% | −16.50% | CC(C)n1nccc1-c1ocnc1COc1cccc(O)c1C=O [Example 66, 2-hydroxy-6-((5-(1-isopropyl-1H-pyrazol-5-yl)oxazol-4-yl)methoxy)benzaldehyde]
 | −6.80% | −25.30% | CC(C)n1nccc1-c1ncoc1COc1cccc(O)c1C=O [Example 67, 2-hydroxy-6-((4-(1-isopropyl-1H-pyrazol-5-yl)oxazol-5-yl)methoxy)benzaldehyde]
 | −8.70% | −13.00% | Cc1nc(COc2cccc(O)c2C=O)c(-c2ccnn2C(C)C)o1 [Example 68, 2-hydroxy-6-((5-(1-isopropyl-1H-pyrazol-5-yl)-2-methyloxazol-4-yl)methoxy)benzaldehyde]
 | −10.40% | −21.90% | Cc1nc(-c2ccnn2C(C)C)c(COc2cccc(O)c2C=O)s1 [Example 70, 2-hydroxy-6-((4-(1-isopropyl-1H-pyrazol-5-yl)-2-methylthiazol-5-yl)methoxy)benzaldehyde]
 | −15.8% | −48.4% | CC(C)n1nccc1-c1nccc(F)c1COc1cccc(O)c1C=O [Example 74, 2-((4-fluoro-2-(1-isopropyl-1H-pyrazol-5-yl)pyridin-3-yl)methoxy)-6-hydroxybenzaldehyde]
